For assay [1], the system named is pERK1/2 (Thr202/Tyr204) in Miapaca2 cells. The assay is described as follows: Assay of intracellular pERK1/2 (Thr202/Tyr204) phosphorylation. It counts as cell-based. The conditions noted are these: pERK1/2 (Thr202/Tyr204) HTRF. A digest of the protocol:
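Miapaca2 cells treated 2 h at 37 °C with compound (3-fold series; final DMSO 0.5%), then lysed 1 h. pERK1/2 (Thr202/Tyr204) detected by HTRF (665/615 nm ratio) after 2 h at 25 °C; normalized to cell-free lysis buffer and DMSO-treated cell controls; IC50 by four-parameter fit.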

In assay [2] the target is Human full-length SHP2 recombinant protein (Homo sapiens (Human), UniProt Q06124). The assay is described as follows: Assay of full-length SHP2 phosphatase activity. It counts as biochemical. The conditions noted are these: DiFMUP substrate, with activating peptide. The method in brief:
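Full-length human SHP2 preincubated 30 min at RT with activating peptide and compound (1% DMSO final). DiFMUP substrate added, reaction 60 min at 25 °C in dark. Fluorescence at ex 355/em 460 nm; IC50 from 4-parameter fit against enzyme-free and vehicle controls.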

Usually IC50 stands for the point on the concentration scale where inhibition reaches its midpoint.

Human full-length SHP2 recombinant protein, sequence (Q06124 whole entry): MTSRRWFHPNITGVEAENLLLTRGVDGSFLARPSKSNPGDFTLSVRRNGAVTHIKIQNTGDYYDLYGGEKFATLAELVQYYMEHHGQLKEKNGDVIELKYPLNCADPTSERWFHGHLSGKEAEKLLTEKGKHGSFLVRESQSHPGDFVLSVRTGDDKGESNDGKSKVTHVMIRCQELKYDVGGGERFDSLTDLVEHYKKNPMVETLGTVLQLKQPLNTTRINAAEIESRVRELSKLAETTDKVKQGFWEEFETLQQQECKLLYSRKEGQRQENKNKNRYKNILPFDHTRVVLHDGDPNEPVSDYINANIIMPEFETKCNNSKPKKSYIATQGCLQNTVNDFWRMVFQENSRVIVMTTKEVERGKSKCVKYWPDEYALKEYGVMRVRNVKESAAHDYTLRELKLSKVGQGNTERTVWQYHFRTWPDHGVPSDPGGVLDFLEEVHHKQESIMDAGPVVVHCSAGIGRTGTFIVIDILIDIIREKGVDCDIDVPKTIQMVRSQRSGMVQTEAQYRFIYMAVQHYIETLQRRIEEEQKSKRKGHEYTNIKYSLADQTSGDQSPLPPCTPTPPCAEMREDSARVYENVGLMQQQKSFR

In the case of `C#Cc1ccc2c(c1)[C@@H](N)C1(CCN(c3ncc(Sc4ccnc(N)n4)c4nccn34)CC1)C2` [Compound 27], the IC50 was 11 nM in assay [1] (Homo sapiens, MIA PaCa-2, 2 h) and 1 nM in assay [2].
Consider `COCC#Cc1ccc2c(c1)[C@@H](N)C1(CCN(c3cc(=O)n(-c4ccc(F)c(OC)c4Cl)c(C)n3)CC1)C2` (atropisomer, axis not shown) [Compound 164], for which the IC50 in assay [1] (2 hours) was 154 nM; in assay [2], 42 nM.
As to `Cc1nc(N2CCC3(CC2)Cc2ccc(C#CC(N)=O)cc2[C@H]3N)cc(=O)n1-c1cccc(Cl)c1Cl` [Compound 127], the IC50 turned out to be 13 nM in assay [1] (Homo sapiens, MIA PaCa-2, 2 h) and 0.6 nM in assay [2].
Regarding `Nc1nccc(Sc2cnc(N3CCC4(CC3)Cc3ccc(C#CC(=O)N5CCC5)cc3[C@H]4N)cn2)c1Cl` [Compound 303], the IC50 in assay [1] (Homo sapiens, MIA PaCa-2, 2 h) was determined as 9 nM; in assay [2], 0.5 nM.
For the molecule `C#Cc1ccc2c(c1)[C@@H](N)C1(CCN(c3cc(=O)n(-c4ccc(F)c(OC)c4F)c(C)n3)CC1)C2` (atropisomer, axis not shown) [Compound 89], the IC50 in assay [1] (2 hours) was found to be 153 nM; in assay [2], 15 nM.
Turning to `C#Cc1ccc2c(c1)[C@@H](N)C1(CCN(c3cc(=O)n(-c4cccc(OC)c4)c(C)n3)CC1)C2` [Compound 43], the IC50 amounted to 117 nM in assay [1] (Homo sapiens, MIA PaCa-2, 2 h) and 6 nM in assay [2].
On to `C#Cc1ccc2c(c1)[C@@H](N)C1(CCN(c3cc(=O)n(-c4cccc(SC)c4)c(C)n3)CC1)C2` [Compound 53], for which the IC50 is 364 nM in assay [1] (Homo sapiens, MIA PaCa-2, 2 h) and 18 nM in assay [2].
In the case of `C#Cc1ccc2c(c1)[C@@H](N)C1(CCN(c3cc(=O)n(-c4cccc(Cl)c4Cl)c(C)n3)CC1)C2` [Compound 64], the IC50 in assay [1] (Homo sapiens, MIA PaCa-2, 2 h) worked out at 891 nM; in assay [2], 184 nM.
The like results for `C#Cc1ccc2c(c1)[C@@H](N)C1(CCN(c3cc(=O)n(-c4ccc(F)c(Cl)c4)c(C)n3)CC1)C2` [Compound 45] were, in that order, 261 nM and 11 nM.
`C#Cc1ccc2c(c1)[C@@H](N)C1(CCN(c3cc(=O)n(-c4cccc(C(F)(F)F)c4Cl)c(C)n3)CC1)C2` [Compound 106]: the IC50 worked out at 84 nM in assay [1] (2 hours) and 9 nM in assay [2].
With `NC(=O)C#Cc1ccc2c(c1)[C@@H](N)C1(CCN(c3cnc(Sc4ccnc(N)c4Cl)c(N)n3)CC1)C2` [Compound 129], the IC50 was 3 nM in assay [1] (Homo sapiens, MIA PaCa-2, 2 h) and 0.6 nM in assay [2].
Regarding `CC#Cc1ccc2c(c1)[C@@H](N)C1(CCN(c3cnc(Sc4ccnc(N)c4Cl)nn3)CC1)C2` [Compound 234], the IC50 in assay [1] (Homo sapiens, MIA PaCa-2, 2 h) was determined as 153 nM; in assay [2], 2.8 nM.
As to `NC(=O)C#Cc1ccc2c(c1)[C@@H](N)C1(CCN(c3ncc(Sc4ccnc(N)c4Cl)nc3CO)CC1)C2` [Compound 123], the IC50 in assay [1] (Homo sapiens, MIA PaCa-2, 2 h) is 4 nM; in assay [2], 0.6 nM.
As to `C#Cc1cccc2c1CC1(CCN(c3cc(=O)n(-c4cccc(Cl)c4Cl)c(C)n3)CC1)[C@@H]2N` [Compound 80], the IC50 came to 125 nM in assay [1] (Homo sapiens, MIA PaCa-2, 2 h) and 4 nM in assay [2].
For `C#Cc1ccc2c(c1)[C@@H](N)C1(CCN(c3ncc(Sc4ccnc(N)c4Cl)c4nccn34)CC1)C2` [Compound 8], the IC50 turned out to be 8 nM in assay [1] (Homo sapiens, MIA PaCa-2, 2 h) and 3 nM in assay [2].
The like results for `Cc1nc(N2CCC3(CC2)Cc2ccc(C#CCOC(C)(C)C)cc2[C@H]3N)cc(=O)n1-c1cccc(Cl)c1Cl` [Compound 31] were, in that order, 37 nM and 5 nM.
Taken in the same sequence, the figures for `C#Cc1ccc2c(c1)[C@@H](N)C1(CCN(c3ncc(-c4cn(C)c5ncccc45)c(=O)n3C)CC1)C2` [Compound 285] were 962 nM and 85 nM.
For `CCOCC#Cc1ccc2c(c1)[C@@H](N)C1(CCN(c3cc(=O)n(-c4cccc(Cl)c4Cl)c(C)n3)CC1)C2` [Compound 115], the half-maximal inhibitory concentration (IC50) in assay [1] (Homo sapiens, MIA PaCa-2, 2 h) stood at 26 nM; in assay [2], 2 nM.
Turning to `COCC#Cc1ccc2c(c1)[C@@H](N)C1(CCN(c3cc(=O)n(-c4ccc(F)c(Cl)c4Cl)c(C)n3)CC1)C2` (atropisomer, axis not shown) [Compound 125], the concentration for half-maximal inhibition (IC50) is 175 nM in assay [1] (2 hours) and 96 nM in assay [2].
As to `C#Cc1ccc2c(c1)[C@@H](N)C1(CCN(c3nc(C)n(-c4cccc(Cl)c4Cl)c(=O)c3C)CC1)C2` (atropisomer, axis not shown) [Compound 49], the IC50 in assay [1] (2 hours) turned out to be 18 nM; in assay [2], 3 nM.
Take `C#Cc1ccc2c(c1)[C@@H](N)C1(CCN(c3cc(=O)n(-c4cccc(C#N)c4Cl)c(C)n3)CC1)C2` [Compound 34]: the values for the IC50 in assay [1] (2 hours) and in assay [2] were 244 nM and 4 nM, respectively.
Consider `CNC(=O)C#Cc1ccc2c(c1)[C@@H](N)C1(CCN(c3ncc(N4CCCc5ncccc54)nc3C)CC1)C2` [Compound 263], for which the IC50 in assay [1] (Homo sapiens, MIA PaCa-2, 2 h) turned out to be 204 nM; in assay [2] it was 9 nM.
Taken in the same sequence, the figures for `CCNC(=O)C#Cc1ccc2c(c1)[C@@H](N)C1(CCN(c3nc(N)c(Sc4ccnc(N)c4Cl)nc3Cl)CC1)C2` [Compound 224] were 20 nM and 9 nM.
For `COCC#Cc1ccc2c(c1)[C@@H](N)C1(CCN(c3cnc(Sc4ccnc(N)n4)c(N)n3)CC1)C2` [Compound 112], the IC50 was found to be 6 nM in assay [1] (Homo sapiens, MIA PaCa-2, 2 h) and 2 nM in assay [2].
For `C#Cc1ccc2c(c1)[C@@H](N)C1(CCN(c3cc(=O)n(-c4cccc5[nH]ncc45)c(C)n3)CC1)C2` [Compound 39], the IC50 in assay [1] (Homo sapiens, MIA PaCa-2, 2 h) amounted to 294 nM; in assay [2], 21 nM.
The like results for `COCC#Cc1ccc2c(c1)[C@@H](N)C1(CCN(c3cnc(Sc4ccnc(N)c4Cl)c(N)n3)CC1)C2` [Compound 86] were, in that order, 6 nM and 2 nM.
Take `C#Cc1ccc2c(c1)[C@@H](N)C1(CCN(c3cc(=O)n(-c4ccc(C#N)c(Cl)c4Cl)c(C)n3)CC1)C2` (atropisomer, axis not shown) [Compound 192]: the IC50 in assay [1] (2 hours) and in assay [2] was more than 1000 nM throughout.
With `C#Cc1ccc2c(c1)[C@@H](N)C1(CCN(c3cc(=O)n(-c4cccc(OCC)c4Cl)c(C)n3)CC1)C2` [Compound 62], the IC50 came out at 105 nM in assay [1] (Homo sapiens, MIA PaCa-2, 2 h) and 5 nM in assay [2].
For the molecule `C#Cc1ccc2c(c1)[C@@H](N)C1(CCN(c3cc(=O)n(-c4cc(Cl)ccc4Cl)c(C)n3)CC1)C2` [Compound 73], the IC50 was more than 1000 nM in assay [1] (Homo sapiens, MIA PaCa-2, 2 h) and 253 nM in assay [2].
Regarding `COCC#Cc1cccc2c1CC1(CCN(c3ncc(Sc4ccnc(N)c4Cl)c4nccn34)CC1)[C@@H]2N` [Compound 97], the IC50 in assay [1] (Homo sapiens, MIA PaCa-2, 2 h) is 11 nM; in assay [2], 2 nM.
`CCNC(=O)C#Cc1ccc2c(c1)[C@@H](N)C1(CCN(c3ncc(N4CCCc5ncccc54)nc3C)CC1)C2` [Compound 258]: the IC50 in assay [1] (Homo sapiens, MIA PaCa-2, 2 h) came out at 188 nM; in assay [2] it was 10 nM.
`Cc1nc(N2CCC3(CC2)Cc2ccc(C#C[C@H](C)O)cc2[C@H]3N)cc(=O)n1-c1cccc(Cl)c1Cl` [Compound 38]: the IC50 in assay [1] (Homo sapiens, MIA PaCa-2, 2 h) is 343 nM; in assay [2], 46 nM.
Take `C#Cc1cc2c(cc1F)CC1(CCN(c3cc(=O)n(-c4cccc(Cl)c4Cl)c(C)n3)CC1)[C@@H]2N` [Compound 228]: the IC50 in assay [1] (Homo sapiens, MIA PaCa-2, 2 h) is more than 1000 nM; in assay [2], 203 nM.
Regarding `COCC#Cc1ccc2c(c1)[C@@H](N)C1(CCN(c3nc(C)n(-c4cccc(Cl)c4Cl)c(=O)c3C)CC1)C2` [Compound 36], the IC50 in assay [1] (Homo sapiens, MIA PaCa-2, 2 h) is 33 nM; in assay [2], 6 nM.
Consider `C#Cc1ccc2c(c1)[C@@H](N)C1(CCN(c3cc(=O)n(-c4ccc(F)c(OC)c4F)c(C)n3)CC1)C2` (atropisomer, axis not shown) [Compound 88], for which the IC50 in assay [1] (2 hours) came to 26 nM; in assay [2], 0.8 nM.

Source of the values: patent US20240140931A1, “TRICYCLIC COMPOUNDS AND USES THEREOF” (HUTCHMED LIMITED, priority 2021, published 2024).
